This note sets out measurements from patent US11066413B2, “Aminopyrimidine five-membered heterocyclic compound, and intermediate, preparation method, pharmaceutical composition and application thereof” (GUANGZHOU MAXINOVEL PHARMACEUTICALS CO., LTD., priority 2017, dated 2021).

The target in test [1] is T1, hA2A receptor (Homo sapiens (Human), UniProt P29274). The experiment in a line: binding affinity IC50 to hA2A receptor ([3H]-CGS 21680 filter binding, Effect Embodiment 2). The note with it: A2A membrane, [3H]-CGS 21680 (final 25 nM), 90 minutes at 25° C. The procedure: Evaluation experiment of the binding affinity IC50 of the compounds 1-61 to hA2A receptor
40 uL of ULTIMA GOLD scintillation fluid was added to each well and the CPM (count per minute) value was read by TopCount.

Test [2] has as its target T1, hA2A receptor. The experiment in a line: binding affinity IC50 to hA2A receptor (SPA beads, Effect Embodiment 1). To be noted: A2A receptor membrane, 1 hour at room temperature, read-out: IC50 values of compound 1 binding affinity to hA2A receptor. As to the method: evaluation experiment of the binding affinity IC50 of the compound 1 to hA2A receptor.
Experimental procedure • 1. Preparation of the test compound. • 1) The compound mother plate (1500 rpm, 1 minute) was centrifuged; • 2) 50 Nanoliters was transferred from the compound mother plate to the reaction plate by a nano-sound sonic pipetting system; • 2. Preparation of buffer medium membrane, preparation of beads suspension; • 1) DMSO was added to the assay buffer, final concentration of DMSO was 1%; • 2) homogenized A2A receptor membrane was connected to a 1 mL syringe five times by a No. 26 needle (to avoid air bubbles); • 3) the buffer, A2A receptor membrane and ADA were mixed, and was let stand for 15 minutes at room temperature; • 4) SPA beads were added and mixed well with A2A receptor membrane; • 3. Preparation of radioisotope buffer • 4. Mix reaction reagents • 1) 20 μL of radioactive buffer solution was added into the reaction plate; • 2) 30 μL of membrane and […] suspension was added into the reaction plate; • 3) the plate was sealed and incubated for 1 hour at room temperature with vigorous mixing and shaking; • 4) the beads were precipitated for 4-5 minutes before reading. • 5) Reading with Microbeta; • 5. Data processing

T1 sequence (P29274 whole entry): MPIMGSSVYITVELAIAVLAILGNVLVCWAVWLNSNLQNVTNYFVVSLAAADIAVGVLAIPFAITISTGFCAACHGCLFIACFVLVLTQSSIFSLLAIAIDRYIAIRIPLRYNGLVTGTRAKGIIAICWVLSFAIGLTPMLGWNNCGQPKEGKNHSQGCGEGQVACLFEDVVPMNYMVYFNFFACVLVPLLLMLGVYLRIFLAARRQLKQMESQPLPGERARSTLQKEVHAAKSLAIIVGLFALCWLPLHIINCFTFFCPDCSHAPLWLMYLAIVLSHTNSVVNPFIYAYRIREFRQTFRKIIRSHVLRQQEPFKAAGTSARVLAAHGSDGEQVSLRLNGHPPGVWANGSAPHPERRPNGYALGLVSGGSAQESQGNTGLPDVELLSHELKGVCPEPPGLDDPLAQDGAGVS

Turning to `Nc1nc(-c2ccco2)c2c(n1)C(Cc1ccccc1F)OC2=O` (stereo not drawn) [Compound 1, 2-amino-7-(2-fluorobenzyl)-4-(furan-2-yl)-5H,7H-furo[3,4-d]pyrimidin-5-one], the IC50 at hA2A receptor [1] was determined as 14.7 nM; on hA2A receptor [2], 79 nM. At hA2A receptor [1], `CN1C(=O)c2c(-c3ccco3)nc(N)nc2C1Cc1ccccc1OC(F)(F)F` (stereo not drawn) [Compound 45, 2-amino-7-((2-trifluoromethoxylphenyl)methyl)-4-(furan-2-yl)-6-methyl-5H,6H,7H-pyrrolo[3,4-d]pyrimidin-5-one] displayed an IC50 of 11.6 nM. Turning to `CN1C(=O)c2c(nc(N)nc2-c2ccco2)C1=Cc1ccc(F)cc1F` [Compound 46, 2-amino-7-((2,4-difluorophenyl)methylene)-4-(furan-2-yl)-6-methyl-5H,6H,7H-pyrrolo[3,4-d]pyrimidin-5-one], on hA2A receptor [1], the concentration for half-maximal inhibition (IC50) worked out at 8.7 nM. As to `CN1C(=O)c2c(-c3ccco3)nc(N)nc2C1Cc1ccc(F)cc1F` (stereo not drawn) [Compound 47, 2-amino-7-((2,4-difluorophenyl)methyl)-4-(furan-2-yl)-6-methyl-5H,6H,7H-pyrrolo[3,4-d]pyrimidin-5-one], the IC50 at hA2A receptor [1] turned out to be 16.4 nM. Consider `Cc1ccc(-c2nc(N)nc3c2C(=O)N(C)C3=Cc2ccc(F)cc2F)o1` [Compound 48, 2-amino-7-((2,4-difluorophenyl)methylene)-4-(5-methylfuran-2-yl)-6-methyl-5H,6H,7H-pyrrolo[3,4-d]pyrimidin-5-one], for which the IC50 at hA2A receptor [1] was 13.2 nM. Same read-out and setting: under `Cc1ccc(-c2nc(N)nc3c2C(=O)N(C)C3Cc2ccc(F)cc2F)o1` (stereo not drawn) [Compound 49, 2-amino-7-((2,4-difluorophenyl)methyl)-4-(5-methylfuran-2-yl)-6-methyl-5H,6H,7H-pyrrolo[3,4-d]pyrimidin-5-one] stands 32.1 nM; under `Cc1ccc(-c2nc(N)nc3c2C(=O)N(C)C3=Cc2ccccc2F)o1` [Compound 50, 2-amino-7-((2-fluorophenyl)methylene)-4-(5-methylfuran-2-yl)-6-methyl-5H,6H,7H-pyrrolo[3,4-d]pyrimidin-5-one], 7.3 nM; under `Cc1ccc(-c2nc(N)nc3c2C(=O)N(C)/C3=C\c2ccccc2C(F)(F)F)o1` [Compound 51, 2-amino-7-((2-(trifluoromethyl)phenyl)methylene)-4-(5-methylfuran-2-yl)-6-methyl-5H,6H,7H-pyrrolo[3,4-d]pyrimidin-5-one], 4.7 nM. The compound `Cc1ccc(-c2nc(N)nc3c2C(=O)N(C)C3=Cc2ccccc2OC(F)(F)F)o1` [Compound 52, 2-amino-7-((2-(trifluoromethoxyl)phenyl)methylene)-4-(5-methylfuran-2-yl)-6-methyl-5H,6H,7H-pyrrolo[3,4-d]pyrimidin-5-one] yielded an IC50 at hA2A receptor [1] of 3.6 nM. On the same count and under the same terms, under `Cc1ccc(-c2nc(N)nc3c2C(=O)N(C)C3Cc2ccccc2OC(F)(F)F)o1` (stereo not drawn) [Compound 53, 2-amino-7-((2-(trifluoromethoxyl)phenyl)methyl)-4-(5-methylfuran-2-yl)-6-methyl-5H,6H,7H-pyrrolo[3,4-d]pyrimidin-5-one] stands 56.2 nM; under `Cc1ccc(-c2nc(N)nc3c2C(=O)N(C)C3Cc2ccccc2C(F)(F)F)o1` (stereo not drawn) [Compound 54, 2-amino-7-((2-(trifluoromethyl)phenyl)methyl)-4-(5-methylfuran-2-yl)-6-methyl-5H,6H,7H-pyrrolo[3,4-d]pyrimidin-5-one], 34.7 nM; under `Cc1ccc(-c2nc(N)nc3c2C(=O)N(C)C3Cc2ccccc2F)o1` (stereo not drawn) [Compound 55, 2-amino-7-((2-fluorophenyl)methyl)-4-(5-methylfuran-2-yl)-6-methyl-5H,6H,7H-pyrrolo[3,4-d]pyrimidin-5-one], 29.3 nM. Still for that read-out and setting: under `Cc1ccc(-c2nc(N)nc3c2C(=O)N(C)C3=Cc2ccc(F)cc2C(F)(F)F)o1` [Compound 56, 2-amino-7-((2-(trifluoromethyl)-4-fluorophenyl)methylene)-4-(5-methylfuran-2-yl)-6-methyl-5H,6H,7H-pyrrolo[3,4-d]pyrimidin-5-one] stands 3.4 nM. Still for that read-out and setting: under `Cc1ccc(-c2nc(N)nc3c2C(=O)N(C)C3Cc2ccc(F)cc2C(F)(F)F)o1` (stereo not drawn) [Compound 57, 2-amino-7-((2-(trifluoromethyl)-4-fluorophenyl)methyl)-4-(5-methylfuran-2-yl)-6-methyl-5H,6H,7H-pyrrolo[3,4-d]pyrimidin-5-one] stands 152 nM; under `Cc1ccc(-c2nc(N)nc3c2C(=O)N(C)C3Cc2cc[n+]([O-])cc2)o1` (stereo not drawn) [Compound 58, 4-((2-amino-6-methyl-4-(5-methylfuran-2-yl)-5-carbonyl-5H-pyrrolo[3,4-d]pyrimidin-7(6H)-ene)methyl)-N-oxide pyridine], 21 nM. For `Cc1ccc(-c2nc(N)nc3c2C(=O)N(C)C3Cc2ccncc2)o1` (stereo not drawn) [Compound 59, 2-amino-6-methyl-4-(5-methylfuran-2-yl)-7-(pyridin-4-ylmethyl)-6,7-dihydro-5-carbonyl-5H-pyrrolo[3,4-d]pyrimidine], the IC50 on hA2A receptor [1] turned out to be 179 nM. Still for that read-out and setting: the same measure for `Cc1ccc(-c2nc(N)nc3c2n(C)c(=O)n3-c2ccccc2C(F)(F)F)o1` [Compound 61, 2-amino-7-methyl-6-(5-methylfuran-2-yl)-9-(2-(trifluoromethyl)phenyl)-8(9H)-carbonyl-7H-purine]: 213 nM.
